The record followed here is patent US20260216170A1, “TETRAHYDROISOQUINOLINE HETEROBIFUNCTIONAL BCL-XL DEGRADERS” (Treeline Biosciences, Inc., priority 2023, published 2026).

This test concerns the target T1, Human BCL-XL protein (N-terminal HiBiT tagged BCL-XL expressed in HT1080 cells) (Homo sapiens, UniProt Q07817).
T1 construct: expressed in transfected cells; host or cells: HT-1080 (ATCC CCL-121), stably transduced with lentivirus pLV-UBC-N-HiBiT-BCL-XL-PGK-puro and selected with puromycin
Put plainly: HiBiT Based Degradation Assay. Type of test: cell-based. The following applies: 24 hours incubation; for DC50: BCL-XL degradation, HT1080 cells expressing N-HiBiT-BCL-XL, normalized with DMSO control, geometric mean for multiple data points, read-out: EC50 (24 h); for Ymin (24 h): bottom of BCL-XL degradation curve (remaining HiBiT-BCL-XL signal vs DMSO control), HT1080 cells. An outline of the steps:
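BCL-XL degradation was read as Nano-Glo HiBiT lytic luminescence relative to DMSO after a 24 h compound treatment of HT1080 cells carrying stably integrated N-HiBiT-BCL-XL. EC50 values come from four-parameter logistic curves, with the hook-curve minimum fixed as bottom, and are geometric means where tested repeatedly.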
A general note: HiBiT is a short tag that completes a luciferase, so light tracks the accessible tagged protein.

T1 sequence (Q07817 whole entry): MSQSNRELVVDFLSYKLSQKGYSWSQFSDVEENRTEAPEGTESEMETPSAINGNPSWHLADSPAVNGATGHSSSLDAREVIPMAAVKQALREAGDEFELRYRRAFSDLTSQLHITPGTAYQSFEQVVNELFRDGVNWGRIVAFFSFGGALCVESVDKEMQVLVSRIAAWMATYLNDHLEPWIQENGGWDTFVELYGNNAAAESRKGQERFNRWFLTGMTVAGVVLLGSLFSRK

For `Cn1nc(C2CCC(=O)NC2=O)c2ccc(NC(=O)CN3CCC(CCCOc4ccc(-c5ccc(N6CCc7cccc(C(=O)Nc8nc9ccccc9s8)c7C6)nc5C(=O)O)c(C(F)(F)F)c4)CC3)c(F)c21` (stereo not shown) [Compound 183], the DC50 lay in the range of 10 to 100 nM and the “Ymin (24 h)” value is “B (30% ≤ Ymin < 50%)”.

Consider `C[C@@H]1C[C@@H](CCCOc2cccc(-c3ccc(N4CCc5cccc(C(=O)Nc6nc7ccccc7s6)c5C4)nc3C(=O)O)c2C(F)(F)F)CCN1CC(=O)Nc1ccc2c(C3CCC(=O)NC3=O)nn(C)c2c1` (stereo partly shown) [Compound 215c], for which the DC50 fell in the range of 10 to 100 nM and the “Ymin (24 h)” value was “B (30% ≤ Ymin < 50%)”.

Regarding `Cn1nc(C2CCC(=O)NC2=O)c2ccc(NC(=O)CN3CCC4(CC3)CC(Oc3cccc(-c5ccc(N6CCc7cccc(C(=O)Nc8nc9ccccc9s8)c7C6)nc5C(=O)O)c3C(F)(F)F)C4)c(F)c21` (stereo not shown) [Compound 188, 6-(8-(benzo[d]thiazol-2-ylcarbamoyl)-3,4-dihydroisoquinolin-2(1H)-yl)-3-(3-((7-(2-((3-(2,6-dioxopiperidin-3-yl)-7-fluoro-1-methyl-1H-indazol-6-yl)amino)-2-oxoethyl)-7-azaspiro[3.5]nonan-2-yl)oxy)-2-(trifluoromethyl)phenyl)picolinic acid], the DC50 is < 10 nM and the “Ymin (24 h)” value is recorded as “B (30% ≤ Ymin < 50%)”.

On to `Cn1nc(C2CCC(=O)NC2=O)c2ccc(NC(=O)CN3CCC4(CCC(Oc5cccc(-c6ccc(N7CCc8cccc(C(=O)Nc9nc%10ccccc%10s9)c8C7)nc6C(=O)O)c5C(F)(F)F)CC4)CC3)cc21` (stereo not shown) [Compound 196], for which the DC50 is < 10 nM and the “Ymin (24 h)” value is reported as “B (30% ≤ Ymin < 50%)”.

As for `Cc1c(OC[C@@H]2C[C@@H]2C2CCN(CC(=O)Nc3ccc4c(C5CCC(=O)NC5=O)nn(C)c4c3)CC2)cccc1-c1ccc(N2CCc3cccc(C(=O)Nc4nc5ccccc5s4)c3C2)nc1C(=O)O` (single isomer, unassigned) [Compound 1001d], the DC50 was 10 to 100 nM and the “Ymin (24 h)” value is given as “B (30% ≤ Ymin < 50%)”.

As to `Cc1c(OC2CC3(CCN(CC(=O)Nc4ccc5c(C6CCC(=O)NC6=O)nn(C)c5n4)CC3)C2)cccc1-c1ccc(N2CCc3ccnc(C(=O)Nc4nc5ccccc5s4)c3C2)nc1C(=O)O` (stereo not shown) [Compound 207, 6-[8-(1,3-benzothiazol-2-ylcarbamoyl)-3,4-dihydro-1H-2,7-naphthyridin-2-yl]-3-[3-[[7-[2-[[3-(2,6-dioxo-3-piperidyl)-1-methyl-pyrazolo[3,4-b]pyridin-6-yl]amino]-2-oxo-ethyl]-7-azaspiro[3.5]nonan-2-yl]oxy]-2-methyl-phenyl]pyridine-2-carboxylic acid], the DC50 was < 10 nM and the “Ymin (24 h)” value is given as “B (30% ≤ Ymin < 50%)”.

As to `Cc1cc(OCCCC2CCN(Cc3nc4ccc(C5CCC(=O)NC5=O)cc4[nH]3)CC2)ccc1-c1ccc(N2CCc3cccc(C(=O)Nc4nc5ccccc5s4)c3C2)nc1C(=O)O` (stereo not shown) [Compound 2003], the DC50 lay within 10 to 100 nM and the “Ymin (24 h)” value is “C (50% ≤ Ymin < 70%)”.

`Cn1nc(C2CCC(=O)NC2=O)c2ccc(NC(=O)CN3CCC4(CC3)CC(Oc3cccc(-c5ccc(N6CCc7ccnc(C(=O)Nc8nc9ccccc9s8)c7C6)nc5C(=O)O)c3C(F)(F)F)C4)nc21` (stereo not shown) [Compound 202, 6-(8-(benzo[d]thiazol-2-ylcarbamoyl)-3,4-dihydro-2,7-naphthyridin-2(1H)-yl)-3-(3-((7-(2-((3-(2,6-dioxopiperidin-3-yl)-1-methyl-1H-pyrazolo[3,4-b]pyridin-6-yl)amino)-2-oxoethyl)-7-azaspiro[3.5]nonan-2-yl)oxy)-2-(trifluoromethyl)phenyl)picolinic acid]: the DC50 is < 10 nM and the “Ymin (24 h)” value is “B (30% ≤ Ymin < 50%)”.
